Columns and labels:
[1] = test system: CAL-148; test: drug sensitivity score (DSS), CellTiter-Glo (DSS (AUC-based score)); higher = stronger drug effect (viability inhibition or cytotoxicity); extreme values may be limits of the assay; settings: incubation time: 72 h
Summary of the method: (§1)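 The drug sensitivity score reflects the area under a fitted dose-response curve. To obtain it, breast cancer cells in 20 µl suspension were seeded into 384-well plates containing compound at 5 concentrations, 10-fold apart over a compound-specific 10,000-fold range, and incubated 72 h. CellTox Green fluorescence (485/520 nm) was read first and CellTiter-Glo luminescence second, after 10 min at room temperature. Each plate was normalised to 0.1 % DMSO and a positive kill control.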

[2] = test system: CAL-85-1; test: as above; settings: incubation time: 72 h
Summary of the method: as §1

[3] = test system: HCC1937; test: as above; settings: incubation time: 72 h
Summary of the method: as §1

[4] = test system: HDQ-P1; test: as above; settings: incubation time: 72 h
Summary of the method: as §1

[5] = test system: Hs578T; test: as above; settings: incubation time: 72 h
Summary of the method: as §1

[6] = test system: MDA-MB-436; test: as above; settings: incubation time: 72 h
Summary of the method: as §1

[7] = test system: MDA-MB-453; test: as above; settings: incubation time: 72 h
Summary of the method: as §1

[8] = test system: MFM-223; test: as above; settings: incubation time: 72 h
Summary of the method: as §1

[9] = test system: MDA-MB-468; settings: 72 h
Summary of the method: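 In this assay, breast cancer cell lines spent 72 h with compound at 5 concentrations in 10-fold steps over a compound-specific 10,000-fold range. The first readout was cell death by CellTox Green fluorescence, and the second was viability by CellTiter-Glo luminescence, each normalised per plate to 0.1 % DMSO and a positive kill control. EC50 came from the dose-response curves, censored at the top concentration.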

| EC50, CellTiter-Glo [9] [nM] | Structure (SMILES) | drug sensitivity score [1] | drug sensitivity score [2] | drug sensitivity score [3] | drug sensitivity score [4] | drug sensitivity score [5] | drug sensitivity score [6] | drug sensitivity score [7] | drug sensitivity score [8] |
| --- | --- | --- | --- | --- | --- | --- | --- | --- | --- |
|  | CCn1c(-c2nonc2N)nc2cnc(Oc3cccc(NC(=O)c4ccc(OCCN5CCOCC5)cc4)c3)cc21 | 2.07 | 0 | 0 | 1.87 | 6.04 | 1.31 | 0 | 0 |
| 2270 | N#Cc1ccc(COC[C@H]2O[C@@H](n3c(NCc4ccc(Cl)c(Cl)c4)nc4c(N)ncnc43)[C@H](O)[C@@H]2O)cc1 | 0 | 0 | 3.1 | 1.31 | 1.73 | 0 | 0 | 0.407 |
| 953 | COc1cc(O)c2c(c1)/C=C/C[C@H](O)[C@H](O)C(=O)/C=C\C[C@H](C)OC2=O [(5Z)-7-Oxozeaenol] | 7.16 | 12.4 | 5.41 | 7.51 | 5.42 | 7.08 | 1.38 | 5.76 |
| 6650 | COc1cc(OC2CCN(C)CC2)ccc1Nc1ncc2c(n1)n(C1CCCC1)c(=O)n2C [AZ 3146] | 0 | 2.31 | 0 | 0 | 0 | 0 | 0 | 0 |
| 497 | CNC(=O)c1cccc(-c2ccc3c(N4CCOC[C@@H]4C)nc(N4CCOC[C@@H]4C)nc3n2)c1 [AZD2014] | 13.8 | 13.2 | 9.48 | 14.8 | 11.4 | 11.1 | 13.5 | 15.7 |
|  | CN(C)c1nc(N(C)C)nc(N(C)C)n1 [Altretamine] | 0 | 0 | 0 | 0 | 0 | 0 | 0 | 0 |
| 410 | O=C(/C=C/c1cccc(S(=O)(=O)Nc2ccccc2)c1)NO [Belinostat] | 16.1 | 12.6 | 7.92 | 8.05 | 11 | 10.5 | 20.4 | 13.9 |
| 2710 | Nc1cc(C(F)(F)F)c(-c2cc(N3CCOCC3)nc(N3CCOCC3)n2)cn1 [Buparlisib] | 0 | 0 | 3.29 | 6.14 | 1.39 | 0 | 0 | 10 |
|  | O=P1(N(CCCl)CCCl)NCCCO1 (configuration not stated) [Cyclophosphamide] | 0 | 0 | 0 | 0 | 0 | 0 | 0 | 0 |
|  | CNC(=O)c1ccc(N2C(=S)N(c3ccc(C#N)c(C(F)(F)F)c3)C(=O)C2(C)C)cc1F [Enzalutamide] | 0 | 0 | 0 | 0 | 0 | 0 | 0.159 | 0 |
|  | C=C1C[C@@H]2[C@H](CC[C@]3(C)C(=O)CC[C@@H]23)[C@@]2(C)C=CC(=O)C=C12 [Exemestane] | 0 | 0 | 0 | 0 | 0 | 0 | 0 | 0 |
| 1890 | CCOC(=O)CCNc1cc(N2CCc3ccccc3CC2)nc(-c2ccccn2)n1 [GSK-J4] | 17.3 | 15.1 | 12 | 10.5 | 10.4 | 15.7 | 17 | 12.5 |
| 711 | Cc1cc(Nc2cc(CN3CCOCC3)c3nc(C)c(Cc4ccc(Cl)cc4F)n3n2)n[nH]1 [Gandotinib] | 0 | 4.82 | 1.28 | 5.01 | 6.39 | 4.83 | 0 | 5.57 |
| 2800 | COc1cc2ncnc(Nc3ccc(F)c(Cl)c3)c2cc1OCCCN1CCOCC1 [Gefitinib] | 2.08 | 9.09 | 2.45 | 7.21 | 0 | 0 | 0 | 0 |
| 230 | NC(=O)c1ccc(I)c([N+](=O)[O-])c1 [Iniparib] | 0 | 0 | 0 | 0 | 0 | 3.5 | 0 | 0 |
| 1620 | CCc1c2c(nc3ccc(OC(=O)N4CCC(N5CCCCC5)CC4)cc13)-c1cc3c(c(=O)n1C2)COC(=O)[C@]3(O)CC [Irinotecan] | 7.67 | 0 | 0 | 0 | 0 | 7.54 | 0 | 0 |

| EC50, CellTiter-Glo [9] [nM] | Structure (SMILES) | drug sensitivity score [1] | drug sensitivity score [2] | drug sensitivity score [3] | drug sensitivity score [4] | drug sensitivity score [5] | drug sensitivity score [6] | drug sensitivity score [7] | drug sensitivity score [8] |
| --- | --- | --- | --- | --- | --- | --- | --- | --- | --- |
|  | Oc1ccc2c(c1)CC[C@H](c1ccccc1)[C@@H]2c1ccc(OCCN2CCCC2)cc1 [Lasofoxifene] | 0 | 0 | 0 | 0 | 0 | 0 | 0 | 0 |
| 2290 | Cc1ccc(NC(=O)c2ccc(CN3CCN(C)CC3)cc2)cc1Nc1nc(-c2cccnc2)cs1 [Masitinib] | 0 | 0 | 0.648 | 0.939 | 0 | 0 | 3.95 | 0.34 |
| 3360 | COC(=O)c1ccc2c(c1)NC(=O)/C2=C(\Nc1ccc(N(C)C(=O)CN2CCN(C)CC2)cc1)c1ccccc1 [Nintedanib] | 0 | 0 | 3.95 | 6.77 | 1.11 | 3.08 | 1.67 | 7.98 |
| 2500 | O=C(Nc1cccnc1)N1CCC(Cc2cccc(Oc3ccc(C(F)(F)F)cn3)c2)CC1 [PF-3845] | 0 | 0.0221 | 0 | 0 | 0 | 0 | 0 | 0 |
| 39 | Cc1[nH]c2ccccc2c1CCNCc1ccc(/C=C/C(=O)NO)cc1 [Panobinostat] | 20 | 16.5 | 9.22 | 8.41 | 15.1 | 10.2 | 23.5 | 13.2 |
|  | COCC1(CO)C(=O)C2CCN1CC2 (configuration not stated) [Prima-1 Met] | 0 | 0 | 0 | 0 | 0 | 0 | 0 | 0 |
|  | CNC(=O)c1ccc(N2C(=S)N(c3ccc(C#N)c(C(F)(F)F)c3)C(=O)C23CCC3)cc1F [RD162] | 0 | 0 | 0 | 0 | 0 | 0 | 0 | 0 |
| 6340 | CNC(=O)c1cc(Oc2ccc(NC(=O)Nc3ccc(Cl)c(C(F)(F)F)c3)c(F)c2)ccn1 [Regorafenib] | 0.856 | 0 | 1.28 | 2.22 | 3.86 | 1.08 | 2.37 | 6.42 |
| 0.33 | CO[C@H]1C[C@@H]2CC[C@@H](C)[C@@](O)(O2)C(=O)C(=O)N2CCCC[C@H]2C(=O)O[C@H]([C@H](C)C[C@@H]2CC[C@@H](OP(C)(C)=O)[C@H](OC)C2)CC(=O)[C@H](C)/C=C(\C)[C@@H](O)[C@@H](OC)C(=O)[C@H](C)C[C@H](C)/C=C/C=C/C=C/1C [Ridaforolimus] | 7.53 | 8.38 | 7.76 | 2.99 | 9.58 | 4.1 | 8.14 | 6.61 |
| 2280 | c1ccc2c(CCNc3ccc(Nc4ccncc4)cc3)c[nH]c2c1 [Serdemetan] | 7.11 | 1.35 | 3.14 | 2.35 | 0.96 | 2.94 | 1.37 | 1.34 |
|  | S=P(N1CC1)(N1CC1)N1CC1 [Thio-TEPA] | 0 | 0 | 0 | 0 | 0 | 0 | 0 | 0 |
|  | CN(C)CCOc1ccc(/C(=C(/CCCl)c2ccccc2)c2ccccc2)cc1 [Toremifene] | 0 | 0 | 1.98 | 0 | 0 | 0 | 0 | 0.949 |
| 75.6 | CC(C)C[C@@H](C(=O)N[C@H](C(=O)OC1CCCC1)c1ccccc1)[C@H](O)C(=O)NO [Tosedostat] | 5.14 | 12.7 | 8.46 | 5.25 | 2.74 | 5.37 | 14.1 | 6.14 |
| 2050 | COc1cc2c(NC3CCN(C(C)C)CC3)nc(N3CCC(F)(F)CC3)nc2cc1OCCCN1CCCC1 [UNC0642] | 3.63 | 5.86 | 1.97 | 0.93 | 0 | 4.42 | 5.58 | 3.31 |
| 7.82 | COc1cc2/c(=N/c3ccc(Br)cc3F)nc[nH]c2cc1OCC1CCN(C)CC1 [Vandetanib] | 0 | 0 | 0 | 0 | 0 | 0.551 | 0 | 0.335 |
| 3.73 | COCC[n+]1c2c(n(Cc3cnccn3)c1C)C(=O)c1ccccc1C2=O [YM155] | 33 | 39.2 | 35.3 | 33.5 | 18.8 | 40.6 | 29.6 | 28.4 |

| Structure (SMILES) | EC50, CellTiter-Glo [9] [nM] | drug sensitivity score [1] | drug sensitivity score [2] | drug sensitivity score [3] | drug sensitivity score [4] | drug sensitivity score [5] | drug sensitivity score [6] | drug sensitivity score [7] | drug sensitivity score [8] |
| --- | --- | --- | --- | --- | --- | --- | --- | --- | --- |
| O=C(Nc1ccncc1)C(=O)c1cn(Cc2ccc(Cl)cc2)c2ccccc12 [Indibulin] | 273 | 0 | 13 | 3.81 | 3.33 | 7.7 | 11.9 | 6.57 | 7.28 |

Source: the supplement of paper PMC4862054
